Earlier results in patent US20020155976A1, “Cleaning compositions” (Unilever Home & Personal Care USA, Division of Conopco, Inc., priority 2000, published 2002).
Where two headings read alike, the source gives them in different places.

[1] = at 20° C., other common materials, by contrast

Row | Structure (SMILES) | Water Solubility [1] [g/100 g] | Water Solubility (grams of solid to form a saturated solution in 100 grams of water at 20° C., highly water-soluble materials) [g/100 g]
1 | O=P(O)(O)OP(=O)(O)OP(=O)(O)O [Sodium tripolyphosphate anhydrous] | 15 | –
2 | NC(N)=O [Urea] | – | >100
3 | O=BO[O-].[Na+] [Sodium perborate anhydrous] | 3.7 | –
